Assay results taken from US8816101B2, “Paraconic acids as pigmentation activators” (Centre National de la Recherche Scientifique—CNRS, priority 2010, dated 2014).

Tested on: B16 murine cells
Assay: Melanin content of B16 murine cells by spectrophotometry (pigmenting activity in vitro)
Assay type: cell-based
Conditions: B16 cells treated 72 h
Experimental: Protocol: The melanin content of B16 murine cells is determined by spectrophotometry.
The cells are seeded in 10-cm Petri dishes at a density of 1×10^6 per dish and are treated every 24 hours for 72 hours with the specified dose of purified lichenic substance, dissolved in DMSO. […] After treatment, the cells are washed twice with PBS and recovered by treatment with trypsin. The number of cells recovered is estimated by counting using a haemocytometer. One fraction is used for determining the melanin content and a second fraction for the concentration of protein. The melanin content is determined from the absorbance at 405 nm (VersaMax Microplate Reader, Molecular Devices, USA) of the cellular solution after solubilization of the melanin with 1M sodium hydroxide, for 15 min at 80° C. The protein concentration is determined according to the protocol of the “DC Protein Assay” kit developed by Bio-Rad Laboratories, USA. For each sample treated, the melanin content is referred to the amount of protein and expressed as percentage relative to the control situation (DMSO solution only). Each measurement is performed in triplicate and each experiment is carried out independently for a minimum of 3 times.
The molecules tested, with their concentrations expressed in μM, are shown on the abscissa.
On the ordinate, the melanin content is expressed as percentage relative to the control (DMSO alone=concentration of 0.1%).

| Compound | pigmentation relative to the control (melanin content) (0.5 μM, control DMSO 0.1%) | depigmentation (0.5 μM, relative to DMSO control) | pro-pigmenting effect (% of pigmentation) (5 μM, relative to DMSO control) |
| --- | --- | --- | --- |
| C=C1C(=O)O[C@H](CCCCCCCCCCCCC)[C@H]1C(=O)O [protolichesterinic acid, (+)-Protolichesterinic acid] | 72% | 28% |  |
| CCCCCCCCCCCCC[C@H]1OC(=O)C(C)=C1C(=O)O [lichesterinic acid, (+)-Lichesterinic acid] |  |  | 26% |
